Results from patent publication US20060165732A1, “Fungal antigens and eosinophil activity” (priority 2002, published 2006).
Where two headings read alike, the source gives them in different places.

Experiments:
[1] = tested on: Alternaria-induced eosinophil degranulation; test: Effect of test agents on Alternaria-induced eosinophil degranulation (EDN release); assay type: cell-based, human
Protocol: (§1) To monitor eosinophil degranulation, 200 μL of freshly isolated eosinophils were resuspended in HBSS with 25 mM HEPES and 0.01% gelatin at 5×10^5 cells/mL and incubated with the a particular fungal extract. After incubation for 3 hours at 37° C. in a 5% CO2 atmosphere, cell-free supernatants from each well were collected and stored at −20° C. To quantitate eosinophil degranulation, the concentration of one of the eosinophil granule proteins in the sample supernatants, EDN, was measured by specific RIA, as described previously (Horie & Kita, 1994, J. Immunol., 152:5457). The RIA is a double-Ab competition assay in which radioiodinated EDN, rabbit anti-EDN Ab, and burro anti-rabbit IgG are used (Abu-Ghazaleh et al., 1989, J. Immunol., 142:2393). Sensitivity of the kit was 2 ng/mL. Total cellular EDN was measured in parallel supernatants from cells lysed with Nonidet P-40 detergent (Sigma Chemical Co.). All experiments were conducted in duplicate.
The mechanism of the eosinophil degranulation response to Alternaria antigens was examined. To test whether Alternaria proteases are involved in eosinophil activation, Alternaria extracts either were pretreated with a cocktail of protease inhibitors (Complete™, Roche Molecular Biochemicals, Indianapolis, Ind.) or were not pretreated (control). Eosinophils then were incubated with the pretreated or control Alternaria extracts for 4 hours, and EDN release was measured.
(§2) To examine the effect of cytochalasin B in the eosinophil response, eosinophils were preincubated with or without cytochalasin B (5 μg/mL) for 15 minutes at 37° C. After preincubation, eosinophils were exposed to either Alternaria culture extract (100 μg/mL) or IL-5 (10 ng/mL) for 3 hours at 37° C., and EDN release from eosinophils was measured.
(§3) Next, the effect of a Ca^2+ chelator, EGTA, on Alternaria- or IL-5-induced eosinophil degranulation was investigated.
(§4) Eosinophils were pre-treated with various concentrations of ionomycin (FIG. 8D) or thapsigargin (FIG. 8E) for 15 minutes, and then exposed to Alternaria culture extract (100 μg/mL) or IL-5 (10 ng/mL) for 3 hours at 37° C.

[2] = tested on: IL-5-induced eosinophil degranulation; assay type: cell-based, human
Protocol: as §1, §2, §3, §4

PBMC = test: Effect of fluticasone propionate on IL-5 production by PBMC (ELISA); assay type: cell-based, human
Protocol: PBMC were isolated from 30 mL of blood drawn from patients with chronic sinusitis, bronchial asthma, or normal individuals by density centrifugation using Histopaque®. Cells were then suspended in RPMI 1640 medium supplemented with 10% fetal bovine serum at 2×10^6 cells/mL and incubated for 3 days at 37° C. in 96-well tissue culture plates with medium alone, 25 μg/mL Alternaria cellular extract, 25 μg/mL Dermatophagoides Pteronyssinus (Der P; Greer Laboratories; a mite allergen), or 5 μg/mL Concanavalin A. Since Concanavalin A is a very potent inducer, supernatants of PBMC were diluted 50-fold before they were analyzed for the presence of IL-5.
To examine the effects of glucocorticoids on the eosinophilic response, fluticasone propionate (10^−10 M to 10^−6 M, GlaxoSmithKline) was added to the culture. After incubation, cell-free supernatants were collected and analyzed for IL-5 concentrations using an ELISA assay (Endogen, Inc.). In the experiments with Concanavalin A, the amount of IL-5 determined by ELISA was multiplied by 50 to account for the dilution factor.

mice = test: Airway eosinophilia in mice (BAL fluid cells, DiffQuick stain); assay type: in vivo
Protocol: Mice were sensitized at day 14 with 20 μg/dose OVA or 100 μg/dose Alternaria extracts (cellular or culture) by intraperitoneal injection of the antigens followed by intranasal challenge with the appropriate antigen at 250 μg/dose on days 28, 30, and 32.
Eosinophils were detected in mice by collecting BAL fluids, isolating the cells using a cytospin preparation, and staining the cells with DiffQuick stain (DADE Behring, Inc., Newark, Del.).
Furthermore, at 250 μg/dose of Alternaria culture extract, about 10% of the mice died before day 8 due to massive respiratory failure.
To examine the role of IL-5 in airway eosinophilia induced by Alternaria culture extracts, mice were pre-treated with 25 μg/dose of an anti-IL-5 mAb (Pharmingen) or a control antibody (rat IgG) 24 hours before being intranasally challenged at days 0, 3, and 6 with 250 μg/dose OVA, or 250 μg/dose Alternaria culture extract. The number of eosinophils was analyzed by DiffQuick staining at day 8.

[3] = fluticasone 10^−10 M, asthma patient PBMC, 3 days
[4] = fluticasone 10^−10 M, medium alone, asthma patient PBMC, 3 days
[5] = fluticasone 10^−10 M, multiplied by 50 for dilution
[6] = fluticasone 10^−10 M, supernatant diluted 50-fold
[7] = pre-treatment 15 minutes, various concentrations, Alternaria culture extract 100 μg/mL, 3 hours
[8] = pre-treatment 15 minutes, various concentrations, IL-5 10 ng/mL, 3 hours

For `NCCc1ccc(S(=O)(=O)F)cc1` [AEBSF], which “inhibition of Alternaria-induced eosinophil degranulation” value ([1]; Alternaria extracts pretreated with inhibitor, 4 hours, EDN release) is on record?
Its value is 89%.

With `CCCCCCCCCCCCCCCCCCNC(=O)OCC(COC(=O)N(Cc1cccc[n+]1CC)C(C)=O)OC` (stereo not drawn) [CV6209] as the molecule, how does the IC50 ([1]; Homo sapiens, Eosinophil, read-out: IC50 for Alternaria-induced degranulation) read?
Its IC50 is about 1000 nM.

With `O=C(O)CN(CCN(CC(=O)O)CC(=O)O)CC(=O)O` [EDTA] as the molecule, how does the “effect on Alternaria-induced eosinophil degranulation” value ([1]; various concentrations) read?
The value was “completely inhibited”.

And the “effect on IL-5-induced eosinophil degranulation” value [2]?
Its value is “completely inhibited”.

What does the source list for `O=C(O)CN(CCOCCOCCN(CC(=O)O)CC(=O)O)CC(=O)O` [EGTA]?
effect on Alternaria-induced eosinophil degranulation ([1]; 1 mM, pretreatment 15 minutes): almost completely inhibited; effect on Alternaria-induced eosinophil degranulation ([1]; 10 mM, pretreatment 15 minutes): almost completely inhibited; effect on IL-5-induced degranulation ([2]; 1 mM, pretreatment 15 minutes): only partially inhibited; effect on IL-5-induced degranulation ([2]; 10 mM, pretreatment 15 minutes): almost completely inhibited

How did the “effect on IL-5-induced eosinophil degranulation” value ([2]; various concentrations) turn out when `C=CC[C@@H]1/C=C(\C)C[C@H](C)C[C@H](OC)[C@H]2O[C@@](O)(C(=O)C(=O)N3CCCC[C@H]3C(=O)O[C@H](/C(C)=C/[C@@H]3CC[C@@H](O)[C@H](OC)C3)[C@H](C)[C@@H](O)CC1=O)[C@H](C)C[C@@H]2OC` [FK-506] was run?
Its value is “no effect”.

For `CN(C)CCCn1cc(C2=C(c3c[nH]c4ccccc34)C(=O)NC2=O)c2ccccc21` [GF109203X], which “effect on IL-5-induced eosinophil degranulation” value ([2]; various concentrations) is on record?
Its value is “partially inhibited”.

Which “effect on IL-5-induced eosinophil degranulation” value ([2]; various concentrations) does the source give for `O=c1c(-c2ccc(O)cc2)coc2cc(O)cc(O)c12` [Genistein] here?
The value was “completely inhibited”.

For `Cn1c2ccccc2c2c3c(c4c5ccccc5n(CCC#N)c4c21)CNC3=O` [Go 6976], which “effect on IL-5-induced eosinophil degranulation” value ([2]; various concentrations) is on record?
The value was “completely inhibited”.

For `COc1cccc(-c2cc(=O)c3ccccc3o2)c1N` [PD98059], which “effect on IL-5-induced eosinophil degranulation” value ([2]; various concentrations) is on record?
The value was “partially inhibited”.

How did the “effect on IL-5-induced eosinophil degranulation” value ([2]; various concentrations) turn out when `CC(=O)c1c(O)c(C)c(O)c(Cc2c(O)c3c(c(C(=O)/C=C/c4ccccc4)c2O)OC(C)(C)C=C3)c1O` [Rottelerin] was run?
Its value is “completely inhibited”.

Which “effect on IL-5-induced eosinophil degranulation” value ([2]; various concentrations) does the source give for `C[S+]([O-])c1ccc(-c2nc(-c3ccncc3)c(-c3ccc(F)cc3)[nH]2)cc1` (stereo not drawn) [SB203580] here?
Its value is “completely inhibited”.

For `CCCC[C@@H](C=O)NC(=O)[C@H](CC(C)C)NC(=O)OCc1ccccc1` [calpeptin, Calpeptin], which “effect on IL-5-induced eosinophil degranulation” value ([2]; various concentrations) is on record?
Its value is “partially inhibited”.

With `C=C1[C@@H](C)[C@H]2[C@H](Cc3ccccc3)NC(=O)[C@]23OC(=O)/C=C/[C@H](O)CCC[C@@H](C)C/C=C/[C@H]3[C@@H]1O` [cytochalasin B] as the molecule, how does the “effect on Alternaria-induced eosinophil degranulation” value ([1]; 5 μg/mL preincubation 15 minutes, Alternaria culture extract 100 μg/mL, 3 hours) read?
Its value is “not affected”.

What about the “effect on IL-5-induced degranulation” value ([2]; 5 μg/mL preincubation 15 minutes, IL-5 10 ng/mL, 3 hours) of the same molecule?
Its value is “inhibited”.

What does the source list for `CCC(=O)O[C@]1(C(=O)SCF)[C@H](C)C[C@H]2[C@@H]3C[C@H](F)C4=CC(=O)C=C[C@]4(C)[C@@]3(F)[C@@H](O)C[C@@]21C` [fluticasone propionate]?
IL-5 production in the presence of Concanavalin A (PBMC): inhibited; IL-5 production in Alternaria-induced PBMC (PBMC; 10^−10 M, lowest concentration): significantly inhibited; IL-5 production in the presence of Der P (PBMC; 10—O M as printed): inhibited; IL-5, Cellular Alternaria Extract (25 μg/mL), 1 (PBMC; fluticasone 10^−9 M, asthma patient PBMC, 3 days): 0.4; IL-5, Cellular Alternaria Extract (25 μg/mL), 1 (PBMC; [3]): 1.4; IL-5, Cellular Alternaria Extract (25 μg/mL), 2 (PBMC; [3]): 3.9; IL-5, Cellular Alternaria Extract (25 μg/mL), mean (PBMC; [3]): 2.6; IL-5, Der P (25 μg/mL), 2 (PBMC; [3]): 0.9; IL-5, Der P (25 μg/mL), mean (PBMC; [3]): 0.9; IL-5, Con A (5 μg/mL), mean (PBMC; fluticasone 10^−10 M, mean of values multiplied by 50): 101; IL-5, Medium, 1 (PBMC; [4]): 1.3; IL-5, Medium, 2 (PBMC; [4]): 0.3; IL-5, Medium, mean (PBMC; [4]): 0.8; IL-5, Con A (5 μg/mL), 1*50 (PBMC; [5]): 87; IL-5, Con A (5 μg/mL), 2*50 (PBMC; [5]): 115; IL-5, Con A (5 μg/mL), 1 (PBMC; [6]): 1.7; IL-5, Con A (5 μg/mL), 2 (PBMC; [6]): 2.3

How did the “effect on Alternaria-induced eosinophil degranulation” value [1, 7] turn out when `C[C@H](CCC(=O)O)C[C@H](C)C[C@H](C)C(=O)/C=C(\O)[C@H](C)C[C@H](C)C/C=C/[C@@H](C)[C@@H](O)[C@@H](C)[C@@H](O)C[C@@H]1CC[C@@](C)([C@H]2CC[C@@](C)([C@@H](C)O)O2)O1` [ionomycin] was run?
The value was “synergistically increased”.

What about the “effect on IL-5-induced eosinophil degranulation” value [2, 8] of the same molecule?
Its value is “significantly inhibited”.

With `C/C=C(/C)C(=O)O[C@H]1C(C)=C2[C@H]([C@@H]1OC(=O)CCCCCCC)[C@@](C)(OC(C)=O)C[C@H](OC(=O)CCC)[C@@]1(O)[C@H]2OC(=O)[C@@]1(C)O` [thapsigargin] as the molecule, how does the “effect on Alternaria-induced eosinophil degranulation” value [1, 7] read?
Its value is “synergistically increased”.

And the “effect on IL-5-induced eosinophil degranulation” value [2, 8]?
Its value is “significantly inhibited”.

With Herbmycin as the molecule, how does the “effect on IL-5-induced eosinophil degranulation” value ([2]; various concentrations) read?
Its value is “completely inhibited”.

B1: OVA: OVA antigen used for sensitization and challenge of mice (protein, UniProt P01012 2-386, looked up)
Ovalbumin: GSIGAASMEFCFDVFKELKVHHANENIFYCPIAIMSALAMVYLGAKDSTRTQINKVVRFDKLPGFGDSIEAQCGTSVNVHSSLRDILNQITKPNDVYSFSLASRLYAEERYPILPEYLQCVKELYRGGLEPINFQTAADQARELINSWVESQTNGIIRNVLQPSSVDSQTAMVLVNAIVFKGLWEKAFKDEDTQAMPFRVTEQESKPVQMMYQIGLFRVASMASEKMKILELPFASGTMSMLVLLPDEVSGLEQLESIINFEKLTEWTSSNVMEERKIKVYLPRMKMEEKYNLTSVLMAMGITDVFSSSANLSGISSAESLKISQAVHAAHAEINEAGREVVGSAEAGVDAASVSEEFRADHPFLFCIKHIATNAVLFFGRCVSP
Which results are given for B1?
airway eosinophilia in non-sensitized (naïve) mice (mice; intranasal challenge only): not; airway eosinophilia in sensitized and challenged mice (mice; intraperitoneal sensitization day 14, intranasal challenge 250 μg/dose days 28, 30, 32): developed airway eosinophilia by day 34
